Results: patent US5106407A, “Iodones and methods for antimicrobial use” (priority 1989, dated 1992)
Values after ≈ are worked out from the molar mass of the structure shown. Where two headings read alike, the source gives them in different places. Values belong to the molecule of their own block, whether it stands above or below them.

Key:
Experiment in all cases: minimum inhibitory concentration (MIC), agar dilution
Assay type in all cases: cell-based
Bacillus subtilis = system: Bacillus subtilis
Method: (§1) The minimum inhibitory concentration (MIC) for the compound of Example 19, i.e., (2-nitrophenyl)-iodonium 2,2-dimethyl-4,6-dioxo-1,3-dioxan-5-ylide was determined for 9 bacteria (using nutrient agar) and 5 yeast and fungi (using malt yeast agar). A one percent solution of this test compound (i.e., the compound of Example 19) was prepared in a mixture of acetone-water. Nutrient agar was prepared at pH 6.8 using deionized water according to standard Difco procedures. Malt yeast agar was prepared by adding 3 g Bacto yeast extract and 42 g Bacto Malt agar per liter of deionized water. The agar (nutrient agar when testing with bacteria and malt yeast agar when testing with yeast and fungi) was dispensed in 30 mL aliquots into 25×200 millimeter (mm) test tubes, capped and autoclaved for 15 min at 115° C. The test tubes containing the agar were cooled in a water bath until the temperature of the agar was 48° C. and then an appropriate amount of the one percent solution of the test compound was added (except in the controls where no test compound was added with the acetone-water) to the respective test tubes so that final concentrations of 500, 250, 100, 50, 25, 10, 5, 2.5, 1.0 and 0 parts per million (ppm) of the test compound in the agar were obtained. The agar solutions were each mixed and poured into individual petri plates so that each petri plate contained agar having a known concentration of test compound dispersed therein. After drying for 24 hr, the petri plates were inoculated with bacteria when the petri plates contained nutrient broth agar or with fungi and yeast when the petri plates contained malt yeast agar.
(§2) The inoculation with bacteria was accomplished using the following procedure. Twenty-four hr cultures of each of the bacteria were prepared by incubating the respective bacteria in tubes containing nutrient broth for 24 hr at 30° C. in a shaker. Dilutions of each of the 24 hr cultures were made so that 9 separate suspensions (one for each of the 9 test bacteria) were made, each containing about 10^8 colony forming units (CFU) per mL of suspension of a particular bacteria. Aliquots of 0.3 mL of each of the above suspensions were used to fill individual wells of a Steer's Replicator. For each microbial suspension, 0.3 mL was used to fill 3 wells (i.e., 3 wells of 0.3 mL each) so that for the 9 different bacteria 27 wells were filled. The Steer's Replicator was then used to inoculate the petri plates.
(§3) The petri plates were incubated at 30° C. for 48 hr and then read to determine if the test compound (i.e., the compound of Example 19) which was incorporated into the agar prevented growth of the respective bacteria. The minimum inhibitory concentration (MIC) for each bacteria was defined as the lowest concentration of the test compound which prevented growth of that bacteria.
(§4) In a similar procedure, the MIC (in ppm) of the compound of Example 11 (i.e., (2-nitrophenyl)-iodonium 2,6-dioxocyclohexylide) for various organisms was determined at an acid pH (about 6.8) and at an alkaline pH (about 8.2).
(§5) Using similar procedures, the MIC's (in ppm) of various compounds of Formula I and/or Formula II were determined for the organisms Enterobacter aerogenes and Bacillus subtilis in a neutral solution (pH about 6.8) and in an alkaline medium (pH about 8.2).

Enterobacter aerogenes = system: Enterobacter aerogenes
Method: as §1, §2, §3, §4, §5

Staphylococcus aureus = conditions: ATCC 8538
Method: as §1, §2, §3, §4

Klebsiella pneumoniae = conditions: ATCC 8308
Method: as §1, §2, §3, §4

Proteus vulgaris = conditions: ATCC 881
Method: as §1, §2, §3, §4

[1] = system: Pseudomonas aeruginosa PRD-10; conditions: ATCC 15442
Method: as §1, §2, §3, §4

Pseudomonas aeruginosa = conditions: ATCC 10145
Method: as §1, §2, §3, §4

Salmonella choleraesuis = system: Salmonella choleraesuis
Method: as §1, §2, §3, §4

Escherichia coli = conditions: ATCC 11229
Method: as §1, §2, §3, §4

[2] = Bacillus subtilis, alkaline growth medium (pH = 8.2), read-out: MIC (ABS)
[3] = Bacillus subtilis, neutral growth medium (pH = 6.8), read-out: MIC (NBS)
[4] = Klebsiella aerogenes, alkaline growth medium (pH = 8.2), read-out: MIC (AEA)
[5] = Klebsiella aerogenes, neutral growth medium (pH = 6.8), read-out: MIC (NEA)

MIC (Bacillus subtilis; ATCC 8473, Alkaline Medium (pH about 8.2)): ≤ 1.0 ppm
MIC (Bacillus subtilis; Bacillus subtilis, ATCC8473, ATCC 8473, Neutral Medium (pH about 6.8), read-out: MIC): ≤ 1 µg/mL
MIC (Enterobacter aerogenes; ATCC 13048, Alkaline Medium (pH about 8.2)): ≤ 1.0 ppm
MIC (Enterobacter aerogenes; Klebsiella aerogenes, ATCC13048, ATCC 13048, Neutral Medium (pH about 6.8), read-out: MIC): ≤ 1 µg/mL
MIC (Staphylococcus aureus; Alkaline Medium (pH about 8.2)): ≤ 1.0 ppm
MIC (Staphylococcus aureus; Staphylococcus aureus, ATCC8538, Neutral Medium (pH about 6.8), read-out: MIC): ≤ 1 µg/mL
MIC (Klebsiella pneumoniae; Alkaline Medium (pH about 8.2)): ≤ 1.0 ppm
MIC (Klebsiella pneumoniae; Klebsiella pneumoniae, ATCC8308, Neutral Medium (pH about 6.8), read-out: MIC): ≤ 1 µg/mL
MIC (Proteus vulgaris; Alkaline Medium (pH about 8.2)): ≤ 1.0 ppm
MIC (Proteus vulgaris; Proteus vulgaris, ATCC881, Neutral Medium (pH about 6.8), read-out: MIC): ≤ 1 µg/mL
MIC ([1]; Alkaline Medium (pH about 8.2)): ≤ 1.0 ppm
MIC ([1]; Pseudomonas aeruginosa, ATCC15442, Neutral Medium (pH about 6.8), read-out: MIC): ≤ 1 µg/mL
MIC (Pseudomonas aeruginosa; Alkaline Medium (pH about 8.2)): ≤ 1.0 ppm
MIC (Pseudomonas aeruginosa; Pseudomonas aeruginosa, ATCC10145, Neutral Medium (pH about 6.8), read-out: MIC): ≤ 1 µg/mL
MIC (Escherichia coli; Alkaline Medium (pH about 8.2)): ≤ 1.0 ppm
MIC (Escherichia coli; Escherichia coli, ATCC11229, Neutral Medium (pH about 6.8), read-out: MIC): ≤ 1 µg/mL
SMILES: O=C1CCCC(=O)[C-]1[I+]c1ccccc1[N+](=O)[O-] [Example 1, (2-nitrophenyl)-iodonium 2,6-dioxocyclohexylide]
MIC (Salmonella choleraesuis; ATCC 10708, Alkaline Medium (pH about 8.2)): ≤ 1.0 ppm
MIC (Salmonella choleraesuis; Salmonella enterica, ATCC 10708 / CHOLERAESUIS, Neutral Medium (pH about 6.8), read-out: MIC): ≤ 1 µg/mL

MIC (Bacillus subtilis; [2]): 500 µg/mL (≈ 1340 µM)
MIC (Bacillus subtilis; [3]): 25 µg/mL (≈ 67 µM)
MIC (Enterobacter aerogenes; [4]): 500 µg/mL (≈ 1340 µM)
MIC (Enterobacter aerogenes; [5]): 100 µg/mL (≈ 268 µM)
SMILES: Cc1cc(=O)[c-]([I+]c2ccccc2[N+](=O)[O-])c(=O)o1 [Example 47, (2-Nitrophenyl)-iodonium 3,4-dihydro-6-methyl-2,4-dioxo-2H-pyran-3-ylide]

MIC (Bacillus subtilis; [2]): 25 µg/mL (≈ 63.6 µM)
MIC (Bacillus subtilis; [3]): ≤ 1 µg/mL
MIC (Enterobacter aerogenes; [4]): 250 µg/mL (≈ 636 µM)
MIC (Enterobacter aerogenes; [5]): 50 µg/mL (≈ 127 µM)
SMILES: O=C1c2ccccc2C(=O)[C-]1[I+]c1ccccc1[N+](=O)[O-] [Example 48, (2-Nitrophenyl)-iodonium 2,3-dihydro-1,3-dioxo-1H-indan-2-ylide]
